# Experimental data as given in ChEMBL document CHEMBL4219219, “The synthesis and antistaphylococcal activity of N-sulfonaminoethyloxime derivatives of dehydroabietic acid” (Bioorg Med Chem Lett, 2018).
# The source made the active and inactive calls. No cut-off for these calls is given here.
# Tests used:
# [1] = tested on: Staphylococcus aureus; test: Antistaphylococcal activity against aminoglycosides/tetracycline-resistant Staphylococcus aureus NRS-1 after 18 hrs by two-fold serial dilution method; assay type: functional; details: NRS-1, 18 h
# [2] = tested on: Staphylococcus aureus; test: Antistaphylococcal activity against erythromycin-resistant Staphylococcus aureus NRS-70 after 18 hrs by two-fold serial dilution method; assay type: functional; details: NRS-70, 18 h
# [3] = tested on: Escherichia coli; test: Antibacterial activity against Escherichia coli AB1157 at 50 ug/ml after 18 hrs by two-fold serial dilution method; assay type: functional, organism-based
# [4] = tested on: Staphylococcus aureus; test: Antistaphylococcal activity against gentamicin-resistant Staphylococcus aureus NRS-108 after 18 hrs by two-fold serial dilution method; assay type: functional; details: NRS-108, 18 h
# [5] = tested on: Staphylococcus aureus; test: Antistaphylococcal activity against Staphylococcus aureus Newman after 18 hrs by two-fold serial dilution method; assay type: functional
# [6] = tested on: Staphylococcus aureus; test: Antistaphylococcal activity against oxacillin/tetracycline-resistant Staphylococcus aureus NRS-100 after 18 hrs by two-fold serial dilution method; assay type: functional; details: NRS-100, 18 h
# [7] = tested on: Staphylococcus aureus; test: Antistaphylococcal activity against linezolid-resistant Staphylococcus aureus NRS-271 containing phage type E-MRSA 15 after 18 hrs by two-fold serial dilution method; assay type: functional; details: NRS-271, 18 h
Compound,MIC [1] [µg/mL],MIC [2] [µg/mL],Activity [3],MIC [4] [µg/mL],MIC [5] [µg/mL],MIC [6] [µg/mL],MIC [7] [µg/mL]
CC(C)c1cc2c(cc1Br)[C@@]1(C)CCC[C@@](C)(C(=O)O)[C@@H]1C/C2=N\OCCNS(=O)(=O)c1ccccc1Cl,1.56 to 3.13,0.78 to 1.56,inactive,1.56 to 3.13,0.78 to 1.56,1.56 to 3.13,1.56 to 3.13
CC(C)c1cc2c(cc1Br)[C@@]1(C)CCC[C@@](C)(C(=O)O)[C@@H]1C/C2=N\OCCNS(=O)(=O)c1cc(C(F)(F)F)cc(C(F)(F)F)c1,> 50,0.78 to 1.56,inactive,0.78 to 1.56,0.78 to 1.56,> 50,> 50
CC(C)c1cc2c(cc1Br)[C@@]1(C)CCC[C@@](C)(C(=O)O)[C@@H]1C/C2=N\OCCNS(=O)(=O)c1ccccc1,1.56 to 3.13,0.78 to 1.56,inactive,1.56 to 3.13,1.56 to 3.13,1.56 to 3.13,1.56 to 3.13
CC(C)c1cc2c(cc1Br)[C@@]1(C)CCC[C@@](C)(C(=O)O)[C@@H]1C/C2=N\OCCNS(=O)(=O)c1cc(F)c(F)c(F)c1,–,–,inactive,–,> 50,–,–
CC(C)c1cc2c(cc1Br)[C@@]1(C)CCC[C@@](C)(C(=O)O)[C@@H]1C/C2=N\OCCNS(=O)(=O)c1ccc2ccccc2c1,3.13 to 6.25,1.56 to 3.13,inactive,1.56 to 3.13,1.56 to 3.13,3.13 to 6.25,3.13 to 6.25
CC(C)c1ccc2c(c1)CC[C@H]1[C@](C)(C(=O)O)CCC[C@]21C [DEHYDROABIETIC ACID],12.5 to 25,12.5 to 25,–,12.5 to 25,12.5 to 20,12.5 to 25,12.5 to 25
CC(C)c1cc2c(cc1Br)[C@@]1(C)CCC[C@@](C)(C(=O)O)[C@@H]1C/C2=N\OCCNS(=O)(=O)c1ccc(Br)cc1,0.78 to 1.56,0.78 to 1.56,inactive,0.78 to 1.56,0.78 to 1.56,0.78 to 1.56,0.78 to 1.56
Cc1ccccc1S(=O)(=O)NCCO/N=C1\C[C@H]2[C@](C)(C(=O)O)CCC[C@]2(C)c2cc(Br)c(C(C)C)cc21,1.56 to 3.13,1.56 to 3.13,inactive,1.56 to 3.13,1.56 to 3.13,3.13 to 6.25,1.56 to 3.13
CC(C)c1cc2c(cc1Br)[C@@]1(C)CCC[C@@](C)(C(=O)O)[C@@H]1C/C2=N\OCCNS(=O)(=O)c1ccccc1C(F)(F)F,–,–,inactive,–,> 50,–,–
CN[C@H](CC(C)C)C(=O)N[C@H]1C(=O)N[C@@H](CC(N)=O)C(=O)N[C@H]2C(=O)N[C@H]3C(=O)N[C@H](C(=O)N[C@H](C(=O)O)c4cc(O)cc(O)c4-c4cc3ccc4O)[C@H](O)c3ccc(c(Cl)c3)Oc3cc2cc(c3O[C@@H]2O[C@H](CO)[C@@H](O)[C@H](O)[C@H]2O[C@H]2C[C@](C)(N)[C@H](O)[C@H](C)O2)Oc2ccc(cc2Cl)[C@H]1O [VANCOMYCIN],1.56 to 3.13,0.2 to 0.39,–,0.39 to 0.78,0.78 to 1.56,0.39 to 0.78,0.39 to 0.78
CC(C)c1cc2c(cc1Br)[C@@]1(C)CCC[C@@](C)(C(=O)O)[C@@H]1C/C2=N\OCCNS(=O)(=O)c1cccc(Br)c1,1.56 to 3.13,0.78 to 1.56,inactive,0.78 to 1.56,0.78 to 1.56,1.56 to 3.13,1.56 to 3.13
CC(C)c1cc2c(cc1Br)[C@@]1(C)CCC[C@@](C)(C(=O)O)[C@@H]1C/C2=N\OCCNS(=O)(=O)c1ccc(Cl)nc1,–,–,inactive,–,3.13 to 6.25,–,–
CC(C)c1cc2c(cc1Br)[C@@]1(C)CCC[C@@](C)(C(=O)O)[C@@H]1C/C2=N\OCCNS(=O)(=O)C1CC1,–,–,inactive,–,6.25 to 12.5,–,–
CC(C)c1cc2c(cc1Br)[C@@]1(C)CCC[C@@](C)(C(=O)O)[C@@H]1C/C2=N\OCCNS(=O)(=O)c1ccc(C(C)(C)C)cc1,–,–,inactive,–,3.13 to 6.25,–,–
CC(C)c1cc2c(cc1Br)[C@@]1(C)CCC[C@@](C)(C(=O)O)[C@@H]1C/C2=N\OCCNS(=O)(=O)c1cccs1,–,–,inactive,–,–,–,–
CC(C)c1cc2c(cc1Br)[C@@]1(C)CCC[C@@](C)(C(=O)O)[C@@H]1C/C2=N\OCCNS(=O)(=O)c1c(Cl)cccc1Cl,1.56 to 3.13,0.78 to 1.56,inactive,1.56 to 3.13,1.56 to 3.13,1.56 to 3.13,1.56 to 3.13
CC(C)c1cc2c(cc1Br)[C@@]1(C)CCC[C@@](C)(C(=O)O)[C@@H]1C/C2=N\OCCNS(=O)(=O)c1cccnc1,–,–,inactive,–,3.13 to 6.25,–,–
CC(C)c1cc2c(cc1Br)[C@@]1(C)CCC[C@@](C)(C(=O)O)[C@@H]1C/C2=N\OCCNS(=O)(=O)c1c(F)cccc1F,–,–,inactive,–,> 50,–,–
